Data: ChEMBL document CHEMBL5385888, “Structure-based discovery of pyrazolamides as novel ERRγ inverse agonists” (Eur J Med Chem, 2023)
Activity calls are given as the source filed them. The rule behind the calls is not given here.

Molecular target: T1, Estrogen-related receptor gamma (Mus musculus) (UniProt P62509)
T1 sequence (whole entry): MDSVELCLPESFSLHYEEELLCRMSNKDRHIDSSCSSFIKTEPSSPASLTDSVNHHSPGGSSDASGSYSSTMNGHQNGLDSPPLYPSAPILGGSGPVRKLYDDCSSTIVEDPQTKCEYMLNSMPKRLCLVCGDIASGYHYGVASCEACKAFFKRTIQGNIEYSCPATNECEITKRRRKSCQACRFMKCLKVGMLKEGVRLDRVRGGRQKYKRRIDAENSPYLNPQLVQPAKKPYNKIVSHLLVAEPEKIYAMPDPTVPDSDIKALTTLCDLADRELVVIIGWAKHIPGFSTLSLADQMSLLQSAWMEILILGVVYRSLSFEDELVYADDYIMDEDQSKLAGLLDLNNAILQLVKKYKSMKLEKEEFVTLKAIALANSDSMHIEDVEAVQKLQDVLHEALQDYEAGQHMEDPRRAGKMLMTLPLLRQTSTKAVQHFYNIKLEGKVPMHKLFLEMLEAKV
Test: Inverse agonist activity at Gal4-tagged mouse ERR-gamma LBD transfected in HEK293T cells co-expressing FR-luc assessed as inhibition of transcriptional activity at 10 uM incubated for 24 hrs by luciferase reporter gene assay
Assay type: cell-based
Conditions: not given

Q: How did the inhibition turn out when `COC(=O)c1ccc(-n2cc(C(=O)Nc3cc(N)cc(Oc4cccnc4)c3)c(-c3ccccc3)n2)cc1` was run?
A: inactive

Q: With `COc1cccc(-c2nn(-c3ccccc3)cc2C(=O)Nc2cc(OCCCN(C)C)cc(C(F)(F)F)c2)c1` as the compound, how does the inhibition read?
A: inactive

Q: For `COc1cccc(-c2nn(-c3ccccc3)cc2C(=O)Nc2cc(N)cc(OCCN(C)C)c2)c1`, which inhibition is on record?
A: inactive

Q: Which inhibition does the source give for `Nc1cc(NC(=O)c2cn(-c3ccc(CO)cc3)nc2-c2ccccc2)cc(Oc2cccnc2)c1` here?
A: inactive

Q: With `Nc1cc(NC(=O)c2cn(-c3ccc(C(=O)O)cc3)nc2-c2ccccc2)cc(Oc2cccnc2)c1` as the compound, how does the inhibition read?
A: inactive

Q: `CN(C)CCCOc1cc(N)cc(NC(=O)c2cn(-c3ccccc3)nc2-c2ccccc2)c1` was tested. Which inhibition did it give?
A: inactive

Q: How did the inhibition turn out when `CCN(CC)C(=O)c1ccc(-n2cc(C(=O)Nc3cc(N)cc(Oc4cccnc4)c3)c(-c3ccccc3)n2)cc1` was run?
A: inactive

Q: Which inhibition does the source give for `COc1cccc(-c2nn(-c3ccccc3)cc2C(=O)Nc2cc(N)cc(OCCCN(C)C)c2)c1` here?
A: inactive

Q: With `CN(C)CCOc1cc(NC(=O)c2cn(-c3ccccc3)nc2-c2ccccc2)cc(C(F)(F)F)c1` as the compound, how does the inhibition read?
A: inactive

Q: With `COc1cccc(-c2nn(-c3ccccc3)cc2C(=O)Nc2cc(OCCN(C)C)cc(C(F)(F)F)c2)c1` as the compound, how does the inhibition read?
A: inactive

Q: With `CN(C)CCCOc1cc(NC(=O)c2cn(-c3ccccc3)nc2-c2ccccc2)cc(C(F)(F)F)c1` as the compound, how does the inhibition read?
A: inactive

Same assay, conditions: filed as inverse agonist

Q: For `Cc1ccc(-c2nn(-c3ccccc3)cc2C(=O)Nc2ccc(Oc3ccc(C(C)C)cc3)cc2)cc1`, which Activity is on record?
A: Active

Molecular target: T2, Estrogen-related receptor gamma (Mus musculus, UniProt P62509)
T2 sequence (P62509 whole entry): T1 sequence (whole entry)
Test: Inverse agonist activity at Gal4-tagged mouse ERR-gamma LBD transfected in HEK293T cells co-expressing FR-luc assessed as inhibition of transcriptional activity incubated for 24 hrs by luciferase reporter gene assay
Assay type: cell-based
Conditions: not given

Q: How did the IC50 turn out when `COc1cccc(-c2nn(-c3ccccc3)cc2C(=O)Nc2cc(N)cc(Oc3cccnc3)c2)c1` was run?
A: 2.91 µM

Q: With `COc1ccc(-c2nn(-c3ccccc3)cc2C(=O)Nc2ccc(Oc3ccc(C(C)C)cc3)cc2)cc1OC` as the compound, how does the IC50 read?
A: 9.95 µM

Q: With `COc1cccc(-c2nn(-c3ccccc3)cc2C(=O)Nc2cccc(Oc3cccnc3)c2)c1` as the compound, how does the IC50 read?
A: 2.11 µM

Q: Which IC50 does the source give for `COC(=O)c1cccc(Oc2cc(N)cc(NC(=O)c3cn(-c4ccccc4)nc3-c3ccccc3)c2)c1` here?
A: 8.42 µM

Q: How did the IC50 turn out when `COc1cccc(Oc2cc(N)cc(NC(=O)c3cn(-c4ccccc4)nc3-c3cccc(OC)c3)c2)c1` was run?
A: 8.47 µM

Q: For `COc1cccc(Oc2cc(N)cc(NC(=O)c3cn(-c4ccccc4)nc3-c3ccccc3)c2)c1`, which IC50 is on record?
A: 13.5 µM

Q: With `COc1cc(C)ccc1Oc1ccc(NC(=O)c2cn(-c3ccccc3)nc2-c2ccccc2)cc1` as the compound, how does the IC50 read?
A: 9.48 µM

Q: Which IC50 does the source give for `O=C(Nc1cccc(Oc2cccnc2)c1)c1cn(-c2ccccc2)nc1-c1ccccc1` here?
A: 1.33 µM

Q: Which IC50 does the source give for `O=C(Nc1cc(Oc2cccnc2)cc(C(F)(F)F)c1)c1cn(-c2ccccc2)nc1-c1ccccc1` here?
A: 6.75 µM

Q: For `COc1ccc(-c2nn(-c3ccccc3)cc2C(=O)Nc2ccc(Oc3ccc(C)cc3OC)cc2)cc1OC`, which IC50 is on record?
A: 10.4 µM

Q: Which IC50 does the source give for `COc1cc(C)ccc1Oc1ccc(NC(=O)c2cn(-c3ccccc3)nc2-c2ccc(C)cc2)cc1` here?
A: 5.48 µM
